In one assay the test system is HCV replicon 2b. Nature of the assay: Cell-based HCV replicon assay (TaqMan), genotype 2b replicon. The note with it: Hepatitis C virus, 72 h, read-out: 2b EC90, HCV 2b replicon cells, replicon RNA by TaqMan on day 3; EC90 = concentration for ΔCT=3.2 over baseline. The method, then: (§1) Measurement of inhibition by compounds of the present invention was performed using the HCV replicon system. Several different replicons encoding different HCV genotypes or mutations were used. In addition, potency measurements were made using different formats of the replicon assay, including different ways of measurements and different plating formats. See Jan M. Vrolijk et al., A replicons-based bioassay for the measurement of interferons in patients with chronic hepatitis C, 110 J. VIROLOGICAL METHODS 201 (2003); Steven S. Carroll et al., Inhibition of Hepatitis C Virus RNA Replication by 2′-Modified Nucleoside Analogs, 278(14) J. BIOLOGICAL CHEMISTRY 11979 (2003). However, the underlying principles are common to all of these determinations, and are outlined below.
(§2) Compounds of the present invention were assayed for cell-based anti-HCV activity using the following protocol. Replicon cells were seeded at 5000 cells/well in 96-well collagen I-coated Nunc plates in the presence of the test compound. Various concentrations of test compound, typically in 10 serial 2-fold dilutions, were added to the assay mixture, with the starting concentration ranging from 250 μM to 1 μM. The final concentration of DMSO was 0.5%, fetal bovine serum was 5%, in the assay media. Cells were harvested on day 3 by the addition of 1× cell lysis buffer (Ambion cat #8721). The replicon RNA level was measured using real time PCR (TaqMan® assay). The amplicon was located in 5B. The PCR primers were: 5B.2F, ATGGACAGGCGCCCTGA (SEQ. ID NO. 1); 5B.2R, […] (SEQ. ID NO. 2); the probe sequence was FAM-labeled CACGCCATGCGCTGCGG (SEQ. ID NO. 3). GAPDH RNA was used as endogenous control and was amplified in the same reaction as NS5B (multiplex PCR) using primers and VIC-labeled probe recommended by the manufacturer (PE Applied Biosystem). The real-time […] reactions were run on ABI PRISM 7900HT Sequence Detection System using the following program: 48° C. for 30 minutes, 95° C. for 10 minutes, 40 cycles of 95° C. for 15 sec, 60° C. for 1 minute. The ACT values (CT5B-CTGAPDH) were plotted against the concentration of test compound and fitted to the sigmoid dose-response model using XLfit4 (MDL). EC50 was defined as the concentration of inhibitor necessary to achieve ΔCT=1 over the projected baseline; EC90 the concentration necessary to achieve ΔCT=3.2 over the baseline. Alternatively, to quantitate the absolute amount of replicon RNA, a standard curve was established by including serially diluted T7 transcripts of replicon RNA in the Taqman assay. All TaqMan® reagents were from PE Applied Biosystems. Such an assay procedure was described in detail in e.g. Malcolm et al., Antimicrobial Agents and Chemotherapy 50: 1013-1020 (2006).
(§3) HCV replicon EC50 assay data for various replicons and mutants was calculated for selected compounds of the present invention using this method and is provided in the tables above herein.
In general terms: A replicon is a self-replicating genome or part of one, used to study replication in cells.

The next assay concerns HCV replicon 1b. Nature of the assay: Cell-based HCV replicon assay (TaqMan), genotype 1b replicon. Conditions: Hepatitis C virus, 72 h, HCV 1b replicon cells, replicon RNA by TaqMan on day 3; EC90 = concentration for ΔCT=3.2 over baseline. How it is done:
as §1, §2, §3

A further assay relates to HCV replicon 1a Y93H. Nature of the assay: Cell-based HCV replicon assay (TaqMan), genotype 1a Y93H mutant replicon. Conditions: Hepatitis C virus, 72 h, read-out: 1a Y93H EC90, HCV 1a Y93H mutant replicon cells, replicon RNA by TaqMan on day 3; EC90 = concentration for ΔCT=3.2 over baseline. How it is done:
as §1, §2, §3

The test system of the next assay is HCV replicon 1a. Nature of the assay: Cell-based HCV replicon assay (TaqMan), genotype 1a replicon. Conditions: Hepatitis C virus, 72 h, HCV 1a replicon cells, replicon RNA by TaqMan on day 3; EC90 = concentration for ΔCT=3.2 over baseline. How it is done: as §1, §2, §3

Where only a bound is given, the exact number is not on record here.

As usually defined, the EC90 is the concentration at which the effect reaches the 90% level. For the compound `COC(=O)N[C@@H](Cc1cccc(O)c1)C(=O)N1CCC[C@H]1c1ncc(-c2ccc(-c3ccc(-c4cnc([C@@H]5C[Si](C)(C)CN5C(=O)[C@H](Cc5cccc(O)c5)NC(=O)OC)[nH]4)cc3)cc2)[nH]1` [Compound 26], the concentration for an effect of 90% (EC90) with HCV replicon 2b is 1000 nM; with HCV replicon 1b, 387 nM; in the assay with HCV replicon 1a Y93H, 1000 nM; in the assay on HCV replicon 1a, 11.5 nM.
For the compound `CC[C@H](NC(=O)OC)C(=O)N1CCC[C@H]1c1ncc(-c2ccc(-c3ccc(-c4cnc([C@@H]5C[Si](C)(C)CN5C(=O)[C@H](CC)NC(=O)OC)[nH]4)cc3)cc2)[nH]1` [Compound 12], the EC90 in the assay with HCV replicon 2b worked out at 535 nM; in the assay with HCV replicon 1b it was 18.1 nM; in the assay on HCV replicon 1a Y93H it was 694 nM; in the assay with HCV replicon 1a it was 0.187 nM.
In the case of `CC[C@@H](O)[C@H](NC(=O)OC)C(=O)N1CCC[C@H]1c1ncc(-c2ccc(-c3ccc(-c4cnc([C@@H]5C[Si](C)(C)CN5C(=O)[C@@H](NC(=O)OC)[C@H](O)CC)[nH]4)cc3)cc2)[nH]1` [Compound 38], the EC90 with HCV replicon 2b was > 1000 nM; in the assay on HCV replicon 1b, 0.21 nM; in the assay with HCV replicon 1a Y93H it was > 1000 nM.
As to `COC(=O)N[C@@H](Cn1cccn1)C(=O)N1CCC[C@H]1c1ncc(-c2ccc(-c3ccc(-c4cnc([C@@H]5C[Si](C)(C)CN5C(=O)[C@H](Cn5cccn5)NC(=O)OC)[nH]4)cc3)cc2)[nH]1` [Compound 29], the concentration for an effect of 90% (EC90) in the assay with HCV replicon 2b came out at 861 nM; in the assay with HCV replicon 1b, 139 nM; with HCV replicon 1a Y93H, 1000 nM; in the assay with HCV replicon 1a, 5.32 nM.
Consider `COC(=O)NC1(C(=O)N2CCC[C@@H]2c2ncc(-c3ccc(-c4ccc(-c5cnc([C@H]6C[Si](C)(C)CN6C(=O)C6(NC(=O)OC)CC6)[nH]5)cc4)cc3)[nH]2)CC1` [Compound 20], for which the EC90 with HCV replicon 2b, in the assay with HCV replicon 1b, in the assay on HCV replicon 1a Y93H and with HCV replicon 1a was 1000 nM each time.
Take `COC(=O)N[C@H](C(=O)N1CCC[C@H]1c1nc(Cl)c(-c2ccc(-c3ccc(-c4[nH]c([C@@H]5C[Si](C)(C)CN5C(=O)[C@@H](NC(=O)OC)C(C)C)nc4Cl)cc3)cc2)[nH]1)C(C)C` [Compound 41]: the EC90 in the assay on HCV replicon 2b is 100 nM; in the assay on HCV replicon 1b, 217 nM; with HCV replicon 1a Y93H, 189 nM; in the assay with HCV replicon 1a, 0.26 nM.
For the compound `COC(=O)N[C@@H](CSC)C(=O)N1CCC[C@H]1c1ncc(-c2ccc(-c3ccc(-c4cnc([C@@H]5C[Si](C)(C)CN5C(=O)[C@H](CSC)NC(=O)OC)[nH]4)cc3)cc2)[nH]1` [Compound 32], the EC90 in the assay with HCV replicon 2b is 144 nM; with HCV replicon 1b, 0.03 nM; in the assay on HCV replicon 1a Y93H, > 1000 nM.
In the same order, the values of `COC(=O)N[C@@H](CC(C)(C)C)C(=O)N1CCC[C@H]1c1ncc(-c2ccc(-c3ccc(-c4cnc([C@@H]5C[Si](C)(C)CN5C(=O)[C@H](CC(C)(C)C)NC(=O)OC)[nH]4)cc3)cc2)[nH]1` [Compound 36] are 434 nM, 0.03 nM and 617 nM.
For `COC(=O)NC1(C(=O)N2CCC[C@H]2c2ncc(-c3ccc(-c4ccc(-c5cnc([C@@H]6C[Si](C)(C)CN6C(=O)C6(NC(=O)OC)CCC6)[nH]5)cc4)cc3)[nH]2)CCC1` [Compound 31] the same measures were > 1000 nM, 2.2 nM and > 1000 nM.
In the same order, the values of `COC(=O)N[C@H](C(=O)N1CCC[C@H]1c1ncc(-c2ccc(-c3ccc(-c4cnc([C@@H]5C[Si](C)(C)CN5C(=O)[C@@H](NC(=O)OC)[C@H](O)C(C)C)[nH]4)cc3)cc2)[nH]1)[C@H](O)C(C)C` [Compound 39] are 510 nM, 0.03 nM and > 1000 nM.
Turning to `COC(=O)N[C@H](C(=O)N1CCC[C@H]1c1ncc(-c2ccc(-c3ccc(-c4cnc([C@@H]5C[Si](C)(C)CN5C(=O)[C@@H](NC(=O)OC)C5CCOCC5)[nH]4)cc3)cc2)[nH]1)C1CCOCC1` [Compound 33], the EC90 with HCV replicon 2b worked out at 7.6 nM; in the assay on HCV replicon 1b, 0.09 nM; with HCV replicon 1a Y93H, 43 nM.
Consider `COC(=O)N[C@@H](CC1CC1)C(=O)N1CCC[C@H]1c1ncc(-c2ccc(-c3ccc(-c4cnc([C@@H]5C[Si](C)(C)CN5C(=O)[C@H](CC5CC5)NC(=O)OC)[nH]4)cc3)cc2)[nH]1` [Compound 37], for which the values for the EC90 with HCV replicon 2b, in the assay on HCV replicon 1b and in the assay with HCV replicon 1a Y93H were 888 nM, 0.03 nM and 425 nM, respectively.
Consider `CC(C)(C)OC(=O)N1C[Si](C)(C)C[C@H]1c1ncc(-c2ccc(-c3ccc(-c4[nH]c([C@@H]5C[C@H]6C[C@H]6N5C(=O)OC(C)(C)C)nc4F)cc3)cc2)[nH]1` [Compound 42], for which the 90% effect concentration (EC90) is > 1000 nM in the assay on HCV replicon 2b, > 1000 nM with HCV replicon 1a Y93H and > 1 nM in the assay with HCV replicon 1a.
With `COC(=O)N[C@H](C(=O)N1CCC[C@H]1c1ncc(-c2ccc(-c3ccc(-c4cnc([C@@H]5C[Si](C)(C)CN5C(=O)[C@@H](NC(=O)OC)C(C)(C)OC)[nH]4)cc3)cc2)[nH]1)C(C)(C)OC` [Compound 35], the EC90 was > 1000 nM in the assay on HCV replicon 2b, 0.09 nM in the assay on HCV replicon 1b and > 1000 nM with HCV replicon 1a Y93H.
Take `COC(=O)N[C@H](C(=O)N1C[Si](C)(C)C[C@H]1c1nc(Cl)c(-c2ccc(-c3ccc(-c4[nH]c([C@@H]5C[C@H]6C[C@H]6N5C(=O)[C@@H](NC(=O)OC)C(C)C)nc4Cl)cc3)cc2)[nH]1)C(C)C` [Compound 51]: the values for the EC90 in the assay with HCV replicon 2b, with HCV replicon 1a Y93H and in the assay on HCV replicon 1a were 2.9 nM, 13.7 nM and 0.008 nM, respectively.
In the same order, the values of `COC(=O)N[C@H](C(=O)N1C[Si](C)(C)C[C@H]1c1ncc(-c2ccc(-c3ccc(-c4[nH]c([C@@H]5C[C@H]6C[C@H]6N5C(=O)[C@@H](NC(=O)OC)C(C)C)nc4F)cc3)cc2)[nH]1)C(C)C` [Compound 44] are 168 nM, 285 nM and 0.17 nM.
In the case of `COC(=O)N[C@@H](C(=O)N1CCC[C@@H]1c1ncc(-c2ccc(-c3ccc(-c4cnc([C@H]5C[Si](C)(C)CN5C(=O)[C@H](NC(=O)OC)C5CC5)[nH]4)cc3)cc2)[nH]1)C1CC1` [Compound 23], the results for the EC90 in the assay on HCV replicon 2b, in the assay with HCV replicon 1a Y93H and in the assay on HCV replicon 1a were 550 nM, 1000 nM and 1.16 nM, respectively.
For `COC(=O)N[C@H](C(=O)N1C[Si](C)(C)C[C@H]1c1nc(Cl)c(-c2ccc(-c3ccc(-c4[nH]c([C@@H]5C[C@H]6C[C@H]6N5C(=O)[C@@H](NC(=O)OC)C5CCOCC5)nc4Cl)cc3)cc2)[nH]1)C1CCOCC1` [Compound 54] the same measures were 0.48 nM, 2.5 nM and 0.023 nM.
On to `COC(=O)N[C@H](C(=O)N1C[Si](C)(C)C[C@H]1c1ncc(-c2ccc(-c3ccc(-c4[nH]c([C@@H]5CCCN5C(=O)[C@@H](NC(=O)OC)C5CCOCC5)nc4C4CC4)cc3)cc2)[nH]1)C1CCOCC1` [Compound 66], for which the EC90 is 1.6 nM in the assay on HCV replicon 2b, 88 nM with HCV replicon 1a Y93H and 0.07 nM with HCV replicon 1a.
Regarding `COC(=O)N[C@H](C(=O)N1C[Si](C)(C)C[C@H]1c1ncc(-c2ccc(-c3ccc(-c4cnc([C@@H]5C[C@H]6C[C@H]6N5C(=O)[C@@H](NC(=O)OC)C5CCOCC5)[nH]4)cc3)cc2)[nH]1)C1CCOCC1` [Compound 48], the EC90 amounted to 9 nM with HCV replicon 2b, 144 nM with HCV replicon 1a Y93H and 0.18 nM in the assay with HCV replicon 1a.
`CC(C)(C)OC(=O)N1C[Si](C)(C)C[C@H]1c1ncc(-c2ccc(-c3ccc(-c4cnc([C@@H]5C[C@H]6C[C@H]6N5C(=O)OC(C)(C)C)[nH]4)cc3)cc2)[nH]1` [Compound 46]: the EC90 with HCV replicon 2b is 422 nM; in the assay with HCV replicon 1a Y93H, > 1000 nM; in the assay on HCV replicon 1a it was > 1000 nM.

The record behind these values is US20140378416A1, “SILYL-CONTAINING HETEROCYCLIC COMPOUNDS AND METHODS OF USE THEREOF FOR THE TREATMENT OF VIRAL DISEASES” (priority 2011, published 2014).
